Measured values: the kinase profiling compilation of Christmann-Franck et al. (2016)

Experiments:
Test in all cases: KINOMEscan competition binding
Settings in all cases: compound 10.0 µM
ACVRL1 (human) = ACVRL1 (human) (UniProt P37023)
AKT3 (human) = AKT3 (human) (UniProt Q9Y243)
CDC42BPA (human) = CDC42BPA (human) (UniProt Q5VT25)
CDK3 (human) = CDK3 (human) (UniProt Q00526)
CHEK2 (human) = CHEK2 (human) (UniProt O96017)
CSNK1E (human) = CSNK1E (human) (UniProt P49674)
CaMK1 (human) = CaMK1 (human) (UniProt Q14012)
Sequence of CaMK1 (human) (Q14012 whole entry, looked up): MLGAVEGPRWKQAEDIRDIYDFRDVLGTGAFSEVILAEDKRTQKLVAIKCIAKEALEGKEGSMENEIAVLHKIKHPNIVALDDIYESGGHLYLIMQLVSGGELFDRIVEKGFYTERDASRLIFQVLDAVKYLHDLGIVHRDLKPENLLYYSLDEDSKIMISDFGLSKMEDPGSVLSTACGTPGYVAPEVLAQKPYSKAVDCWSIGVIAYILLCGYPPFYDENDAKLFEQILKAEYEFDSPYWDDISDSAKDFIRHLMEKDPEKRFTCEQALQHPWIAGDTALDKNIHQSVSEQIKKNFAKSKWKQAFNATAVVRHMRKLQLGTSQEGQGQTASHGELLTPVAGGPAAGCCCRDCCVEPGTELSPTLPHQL

DAPK2 (human) = DAPK2 (human) (UniProt Q9UIK4)
DAPK3 (human) = DAPK3 (human) (UniProt O43293)
DYRK1B (human) = DYRK1B (human) (UniProt Q9Y463)
EPHA7 (human) = EPHA7 (human) (UniProt Q15375)
FYN (human) = FYN (human) (UniProt P06241)
Sequence of FYN (human) (P06241 whole entry, looked up): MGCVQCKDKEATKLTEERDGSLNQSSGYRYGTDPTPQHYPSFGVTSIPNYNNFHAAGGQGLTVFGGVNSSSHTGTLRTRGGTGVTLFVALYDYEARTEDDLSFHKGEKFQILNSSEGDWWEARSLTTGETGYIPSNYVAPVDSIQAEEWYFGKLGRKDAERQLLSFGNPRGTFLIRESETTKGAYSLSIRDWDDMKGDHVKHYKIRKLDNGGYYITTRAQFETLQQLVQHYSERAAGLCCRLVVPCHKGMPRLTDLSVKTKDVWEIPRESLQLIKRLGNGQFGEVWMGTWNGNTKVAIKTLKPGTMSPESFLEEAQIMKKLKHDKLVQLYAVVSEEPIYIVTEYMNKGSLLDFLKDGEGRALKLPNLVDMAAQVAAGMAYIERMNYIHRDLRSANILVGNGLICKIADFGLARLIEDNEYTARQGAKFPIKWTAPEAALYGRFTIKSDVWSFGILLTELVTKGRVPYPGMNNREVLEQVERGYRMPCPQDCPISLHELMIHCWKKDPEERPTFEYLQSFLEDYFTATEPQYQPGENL

GAK (human) = GAK (human) (UniProt O14976)
[1] = biological target: JAK2 JH1 catalytic (human) (UniProt O60674)
LATS2 (human) = LATS2 (human) (UniProt Q9NRM7)
MAP3K10 (human) = MAP3K10 (human) (UniProt Q02779)
MAPK3 (human) = MAPK3 (human) (UniProt P27361)
Sequence of MAPK3 (human) (P27361 whole entry, looked up): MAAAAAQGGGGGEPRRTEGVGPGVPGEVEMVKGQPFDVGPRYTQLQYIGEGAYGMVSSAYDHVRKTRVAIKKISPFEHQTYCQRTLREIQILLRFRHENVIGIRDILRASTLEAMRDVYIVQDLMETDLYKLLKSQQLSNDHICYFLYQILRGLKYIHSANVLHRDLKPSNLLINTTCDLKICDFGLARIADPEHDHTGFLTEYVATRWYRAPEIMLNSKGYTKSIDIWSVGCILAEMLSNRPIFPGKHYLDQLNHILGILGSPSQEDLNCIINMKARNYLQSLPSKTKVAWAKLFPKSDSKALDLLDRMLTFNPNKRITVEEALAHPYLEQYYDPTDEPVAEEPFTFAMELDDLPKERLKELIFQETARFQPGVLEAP

MAPKAPK5 (human) = MAPKAPK5 (human) (UniProt Q8IW41)
Sequence of MAPKAPK5 (human) (Q8IW41 whole entry, looked up): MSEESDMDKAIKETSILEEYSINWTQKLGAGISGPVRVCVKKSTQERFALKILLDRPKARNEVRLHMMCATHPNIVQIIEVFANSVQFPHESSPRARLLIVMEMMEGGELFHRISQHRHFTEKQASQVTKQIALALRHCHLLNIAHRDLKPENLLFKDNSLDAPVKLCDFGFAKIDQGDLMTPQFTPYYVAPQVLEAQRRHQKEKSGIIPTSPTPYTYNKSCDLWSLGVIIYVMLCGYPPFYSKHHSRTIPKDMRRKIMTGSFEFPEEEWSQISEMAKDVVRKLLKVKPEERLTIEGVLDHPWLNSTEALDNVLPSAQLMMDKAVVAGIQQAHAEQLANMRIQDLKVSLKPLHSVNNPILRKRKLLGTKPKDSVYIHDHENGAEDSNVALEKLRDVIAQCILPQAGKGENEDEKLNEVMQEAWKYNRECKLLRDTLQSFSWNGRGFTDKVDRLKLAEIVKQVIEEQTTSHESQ

MARK1 (human) = MARK1 (human) (UniProt Q9P0L2)
MELK (human) = MELK (human) (UniProt Q14680)
MKNK1 (human) = MKNK1 (human) (UniProt Q9BUB5)
MYLK (human) = MYLK (human) (UniProt Q15746)
MYO3B (human) = MYO3B (human) (UniProt Q8WXR4)
NUAK1 (human) = NUAK1 (human) (UniProt O60285)
PAK6 (human) = PAK6 (human) (UniProt Q9NQU5)
Sequence of PAK6 (human) (Q9NQU5 whole entry, looked up): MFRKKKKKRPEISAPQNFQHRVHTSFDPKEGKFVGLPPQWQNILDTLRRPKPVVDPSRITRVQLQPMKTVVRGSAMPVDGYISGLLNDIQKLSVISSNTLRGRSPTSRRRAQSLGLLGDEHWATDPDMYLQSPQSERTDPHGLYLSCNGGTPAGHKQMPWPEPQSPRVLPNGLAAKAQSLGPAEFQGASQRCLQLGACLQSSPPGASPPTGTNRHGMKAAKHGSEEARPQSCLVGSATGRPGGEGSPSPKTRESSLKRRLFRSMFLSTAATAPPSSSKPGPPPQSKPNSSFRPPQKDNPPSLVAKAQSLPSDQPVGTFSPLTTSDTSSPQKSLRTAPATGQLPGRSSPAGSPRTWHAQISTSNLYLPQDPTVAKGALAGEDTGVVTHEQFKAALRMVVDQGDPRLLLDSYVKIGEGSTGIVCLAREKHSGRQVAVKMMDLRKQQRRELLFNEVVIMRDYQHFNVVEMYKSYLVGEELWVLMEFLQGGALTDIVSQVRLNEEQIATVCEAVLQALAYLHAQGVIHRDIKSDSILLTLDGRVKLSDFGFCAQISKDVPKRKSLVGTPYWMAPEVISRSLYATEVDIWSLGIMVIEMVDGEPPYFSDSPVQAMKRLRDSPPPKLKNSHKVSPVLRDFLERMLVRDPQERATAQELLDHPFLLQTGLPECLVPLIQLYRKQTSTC

PHKG1 (human) = PHKG1 (human) (UniProt Q16816)
PIM1 (human) = PIM1 (human) (UniProt P11309)
PRKACB (human) = PRKACB (human) (UniProt P22694)
PRKCE (human) = PRKCE (human) (UniProt Q02156)
PRKX (human) = PRKX (human) (UniProt P51817)
RIOK1 (human) = RIOK1 (human) (UniProt Q9BRS2)
SRC (human) = SRC (human) (UniProt P12931)
SRPK3 (human) = SRPK3 (human) (UniProt Q9UPE1)
Sequence of SRPK3 (human) (Q9UPE1 whole entry, looked up): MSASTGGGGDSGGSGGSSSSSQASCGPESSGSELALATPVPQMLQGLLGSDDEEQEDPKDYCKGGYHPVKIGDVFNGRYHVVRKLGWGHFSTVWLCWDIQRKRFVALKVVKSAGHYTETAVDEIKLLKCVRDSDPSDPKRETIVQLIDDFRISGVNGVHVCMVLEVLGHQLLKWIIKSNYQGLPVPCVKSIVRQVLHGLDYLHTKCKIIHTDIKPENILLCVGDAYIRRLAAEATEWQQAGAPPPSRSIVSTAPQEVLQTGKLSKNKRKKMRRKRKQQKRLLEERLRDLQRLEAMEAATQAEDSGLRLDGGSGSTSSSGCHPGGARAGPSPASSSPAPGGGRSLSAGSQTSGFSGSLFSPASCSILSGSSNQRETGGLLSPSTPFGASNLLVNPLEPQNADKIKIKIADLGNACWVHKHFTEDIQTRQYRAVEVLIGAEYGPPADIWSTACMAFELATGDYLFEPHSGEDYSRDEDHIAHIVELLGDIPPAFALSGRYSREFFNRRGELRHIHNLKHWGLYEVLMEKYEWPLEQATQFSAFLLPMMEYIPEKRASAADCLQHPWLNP

STK24 (human) = STK24 (human) (UniProt Q9Y6E0)
Sequence of STK24 (human) (Q9Y6E0 whole entry, looked up): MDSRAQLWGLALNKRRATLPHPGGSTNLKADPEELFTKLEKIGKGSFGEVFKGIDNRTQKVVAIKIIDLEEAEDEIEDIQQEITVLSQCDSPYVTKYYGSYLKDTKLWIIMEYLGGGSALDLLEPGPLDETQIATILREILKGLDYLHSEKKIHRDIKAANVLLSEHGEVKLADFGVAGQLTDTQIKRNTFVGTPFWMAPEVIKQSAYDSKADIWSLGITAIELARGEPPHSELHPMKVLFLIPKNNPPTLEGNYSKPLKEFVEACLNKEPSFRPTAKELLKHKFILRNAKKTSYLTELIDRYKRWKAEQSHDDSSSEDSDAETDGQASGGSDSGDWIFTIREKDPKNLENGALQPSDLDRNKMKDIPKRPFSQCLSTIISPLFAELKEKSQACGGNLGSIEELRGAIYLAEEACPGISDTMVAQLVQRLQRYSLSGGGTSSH

STK25 (human) = STK25 (human) (UniProt O00506)
TAOK3 (human) = TAOK3 (human) (UniProt Q9H2K8)
TNK1 (human) = TNK1 (human) (UniProt Q13470)
TNNI3K (human) = TNNI3K (human) (UniProt Q59H18)
Sequence of TNNI3K (human) (Q59H18 whole entry, looked up): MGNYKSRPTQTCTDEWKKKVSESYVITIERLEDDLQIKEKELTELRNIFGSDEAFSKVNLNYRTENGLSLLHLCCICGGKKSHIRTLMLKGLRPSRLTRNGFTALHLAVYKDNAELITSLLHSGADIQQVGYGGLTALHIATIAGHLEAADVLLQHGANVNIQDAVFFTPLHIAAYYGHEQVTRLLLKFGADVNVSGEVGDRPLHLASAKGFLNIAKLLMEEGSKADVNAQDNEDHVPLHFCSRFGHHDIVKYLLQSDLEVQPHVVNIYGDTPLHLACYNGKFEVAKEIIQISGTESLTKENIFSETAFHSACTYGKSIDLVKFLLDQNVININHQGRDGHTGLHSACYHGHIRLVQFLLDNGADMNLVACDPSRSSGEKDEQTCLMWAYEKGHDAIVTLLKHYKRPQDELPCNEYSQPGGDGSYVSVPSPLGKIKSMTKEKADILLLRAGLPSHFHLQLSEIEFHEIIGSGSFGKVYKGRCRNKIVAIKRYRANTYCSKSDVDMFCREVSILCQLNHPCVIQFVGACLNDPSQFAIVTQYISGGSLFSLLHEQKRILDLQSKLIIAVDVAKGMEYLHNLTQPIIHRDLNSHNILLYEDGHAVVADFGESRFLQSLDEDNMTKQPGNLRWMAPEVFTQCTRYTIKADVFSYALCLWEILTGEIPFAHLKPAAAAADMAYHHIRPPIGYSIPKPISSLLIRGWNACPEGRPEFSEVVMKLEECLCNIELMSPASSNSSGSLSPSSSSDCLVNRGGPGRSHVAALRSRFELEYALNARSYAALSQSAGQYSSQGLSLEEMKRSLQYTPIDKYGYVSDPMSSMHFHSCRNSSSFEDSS

[2] = biological target: TYK2 JH1 catalytic (human) (UniProt P29597)
ULK1 (human) = ULK1 (human) (UniProt O75385)

Sequence of AKT3 (human) (Q9Y243 whole entry, looked up): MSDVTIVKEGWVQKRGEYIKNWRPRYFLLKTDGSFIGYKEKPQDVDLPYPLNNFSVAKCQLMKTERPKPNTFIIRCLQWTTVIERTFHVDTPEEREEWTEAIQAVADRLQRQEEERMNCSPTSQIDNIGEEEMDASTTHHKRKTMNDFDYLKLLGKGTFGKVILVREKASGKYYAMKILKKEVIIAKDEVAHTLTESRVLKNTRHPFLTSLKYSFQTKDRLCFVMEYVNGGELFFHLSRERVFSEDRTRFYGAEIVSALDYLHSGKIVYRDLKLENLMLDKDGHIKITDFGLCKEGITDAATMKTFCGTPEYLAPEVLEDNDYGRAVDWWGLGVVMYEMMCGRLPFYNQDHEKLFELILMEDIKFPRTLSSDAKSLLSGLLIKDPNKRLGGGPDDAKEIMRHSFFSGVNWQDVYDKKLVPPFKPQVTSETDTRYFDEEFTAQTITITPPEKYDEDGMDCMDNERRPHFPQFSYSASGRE

| Structure (SMILES) | kinase still bound, per cent of control (ACVRL1 (human)) | kinase still bound, per cent of control (AKT3 (human)) | kinase still bound, per cent of control (CDC42BPA (human)) | kinase still bound, per cent of control (CDK3 (human)) | kinase still bound, per cent of control (CHEK2 (human)) | kinase still bound, per cent of control (CSNK1E (human)) | kinase still bound, per cent of control (CaMK1 (human)) | kinase still bound, per cent of control (DAPK2 (human)) | kinase still bound, per cent of control (DAPK3 (human)) | kinase still bound, per cent of control (EPHA7 (human)) | kinase still bound, per cent of control (FYN (human)) | kinase still bound, per cent of control (GAK (human)) | kinase still bound, per cent of control [1] | kinase still bound, per cent of control (LATS2 (human)) | kinase still bound, per cent of control (MAP3K10 (human)) | kinase still bound, per cent of control (MAPKAPK5 (human)) | kinase still bound, per cent of control (MELK (human)) | kinase still bound, per cent of control (MKNK1 (human)) | kinase still bound, per cent of control (MYLK (human)) | kinase still bound, per cent of control (MYO3B (human)) | other results |
| --- | --- | --- | --- | --- | --- | --- | --- | --- | --- | --- | --- | --- | --- | --- | --- | --- | --- | --- | --- | --- | --- |
| Cc1ccc(C(=O)Nc2cccc(C(F)(F)F)c2)cc1Nc1cncc(C(N)=O)c1 | 100% | 100% | 100% | 100% | 100% | 100% | 100% | 100% | 100% | 100% | 100% | 100% | 100% | 100% | 100% | 100% | 100% | 100% | 100% | 100% | kinase still bound, per cent of control (DYRK1B (human)): 100%; kinase still bound, per cent of control (MAPK3 (human)): 100%; kinase still bound, per cent of control (MARK1 (human)): 100%; kinase still bound, per cent of control (NUAK1 (human)): 100%; kinase still bound, per cent of control (PAK6 (human)): 100%; kinase still bound, per cent of control (PHKG1 (human)): 100%; kinase still bound, per cent of control (PIM1 (human)): 100%; kinase still bound, per cent of control (PRKACB (human)): 100%; kinase still bound, per cent of control (PRKCE (human)): 100%; kinase still bound, per cent of control (PRKX (human)): 100%; kinase still bound, per cent of control (RIOK1 (human)): 100%; kinase still bound, per cent of control (SRC (human)): 100%; kinase still bound, per cent of control (SRPK3 (human)): 100%; kinase still bound, per cent of control (STK24 (human)): 100%; kinase still bound, per cent of control (STK25 (human)): 100%; kinase still bound, per cent of control (TAOK3 (human)): 100%; kinase still bound, per cent of control (TNK1 (human)): 100%; kinase still bound, per cent of control (TNNI3K (human)): 12%; kinase still bound, per cent of control [2]: 100%; kinase still bound, per cent of control (ULK1 (human)): 100% |
| COc1cc(N2CCN(C)CC2)ccc1Nc1nc(N)c(C(=O)c2c(Cl)cccc2Cl)s1 | 84% | 100% | 100% | 97% | 100% | 56% | 0.75% | 86% | 78% | 88% | 89% | 73% | 80% | 100% | 100% | 100% | 100% | 51% | 18% | 94% | kinase still bound, per cent of control (DYRK1B (human)): 42%; kinase still bound, per cent of control (MAPK3 (human)): 100%; kinase still bound, per cent of control (NUAK1 (human)): 100%; kinase still bound, per cent of control (PAK6 (human)): 55%; kinase still bound, per cent of control (PHKG1 (human)): 82%; kinase still bound, per cent of control (PIM1 (human)): 100%; kinase still bound, per cent of control (PRKACB (human)): 100%; kinase still bound, per cent of control (PRKCE (human)): 68%; kinase still bound, per cent of control (PRKX (human)): 93%; kinase still bound, per cent of control (RIOK1 (human)): 100%; kinase still bound, per cent of control (SRC (human)): 100%; kinase still bound, per cent of control (SRPK3 (human)): 77%; kinase still bound, per cent of control (STK24 (human)): 77%; kinase still bound, per cent of control (STK25 (human)): 66%; kinase still bound, per cent of control (TAOK3 (human)): 12%; kinase still bound, per cent of control (TNK1 (human)): 100%; kinase still bound, per cent of control (TNNI3K (human)): 82%; kinase still bound, per cent of control [2]: 90%; kinase still bound, per cent of control (ULK1 (human)): 93% |
| O=C(O)c1ccc(Nc2ncc3c(n2)-c2ccc(Cl)cc2C(c2c(F)cccc2F)=NC3)cc1 | 64% | 100% | 84% | 100% | 100% | 100% | 78% | 41% | 70% | 8.8% | 17% | 49% | 100% | 72% | 67% | 100% | 81% | 100% | 95% | 100% | kinase still bound, per cent of control (DYRK1B (human)): 91%; kinase still bound, per cent of control (MARK1 (human)): 100%; kinase still bound, per cent of control (NUAK1 (human)): 67%; kinase still bound, per cent of control (PAK6 (human)): 79%; kinase still bound, per cent of control (PHKG1 (human)): 100%; kinase still bound, per cent of control (PIM1 (human)): 71%; kinase still bound, per cent of control (PRKACB (human)): 58%; kinase still bound, per cent of control (PRKCE (human)): 72%; kinase still bound, per cent of control (PRKX (human)): 75%; kinase still bound, per cent of control (RIOK1 (human)): 100%; kinase still bound, per cent of control (SRPK3 (human)): 100%; kinase still bound, per cent of control (STK24 (human)): 76%; kinase still bound, per cent of control (STK25 (human)): 56%; kinase still bound, per cent of control (TAOK3 (human)): 95%; kinase still bound, per cent of control (TNK1 (human)): 16%; kinase still bound, per cent of control (TNNI3K (human)): 85%; kinase still bound, per cent of control [2]: 100%; kinase still bound, per cent of control (ULK1 (human)): 40% |
| Cc1cc([C@@H](C)Nc2ccccc2C(=O)O)c2nc(N3CCOCC3)cc(=O)n2c1 | 89% | 100% | 96% | 100% | 100% | 98% | 100% | 92% | 100% | 89% | 100% | 75% | 62% | 63% | 96% | 100% | 100% | 92% | 70% | 93% | kinase still bound, per cent of control (MAPK3 (human)): 95%; kinase still bound, per cent of control (MARK1 (human)): 100%; kinase still bound, per cent of control (NUAK1 (human)): 100%; kinase still bound, per cent of control (PAK6 (human)): 93%; kinase still bound, per cent of control (PHKG1 (human)): 93%; kinase still bound, per cent of control (PIM1 (human)): 100%; kinase still bound, per cent of control (PRKACB (human)): 100%; kinase still bound, per cent of control (PRKCE (human)): 100%; kinase still bound, per cent of control (PRKX (human)): 91%; kinase still bound, per cent of control (RIOK1 (human)): 100%; kinase still bound, per cent of control (SRC (human)): 100%; kinase still bound, per cent of control (SRPK3 (human)): 100%; kinase still bound, per cent of control (STK24 (human)): 100%; kinase still bound, per cent of control (STK25 (human)): 76%; kinase still bound, per cent of control (TAOK3 (human)): 100%; kinase still bound, per cent of control (TNK1 (human)): 100%; kinase still bound, per cent of control (TNNI3K (human)): 88%; kinase still bound, per cent of control [2]: 82%; kinase still bound, per cent of control (ULK1 (human)): 91% |
